Source: patent publication US9422350B2, “Target of EGR1 (TOE1) polypeptides for inhibition of HIV” (priority 2010, dated 2016)
“Also recorded” adds a separate entry of the source.

Key:
[1] = system: Tat driven HIV LTR expression; experiment: Tat-driven HIV LTR (TAR) luciferase reporter assay in transfected HeLa cells; assay type: cell-based; conditions: for inhibitory activity of Tat activation of HIV LTR compared with wild-type TOE1: HeLa cells, luciferase, FIG. 7
Description: FIG. 3: TOE1 inhibits Tat driven HIV LTR expression. HeLa cells were seeded into 24 wells plates at 30,000 cells/well and then transfected the following day with the indicated constructs at 200 ng total DNA+0.5 μl of FuGENE™ (Roche)/well. 24 hours after transfection the cells were lysed and the luciferase expression was determined by reading Relative Bioluminescent Units (RLU). This graph is representative of multiple experiments performed in triplicates.
FIG. 7: TOE1 processing by caspase-1 enhances its inhibition of HIV LTR transactivation by Tat. (A) HeLa cells were transfected with the indicated constructs, and then luciferase assay was performed as described above. […] All transfection and measurements were performed in triplicate.
FIG. 9: Defining the minimal TOE1 region able to inhibit Tat-induced HIV LTR activation. […] Results are expressed as percentage activation of the HIV LTR referenced to Tat. All transfections and measurements were performed in triplicate, and results are representative of multiple independent experiments.
To test for a potential interaction between TOE1 and Tat, we assessed the effect of TOE1 expression on Tat driven transactivation of the TAR element. We employed a luciferase expression system controlled by the HIV LTR including the TAR sequence.

[2] = system: Tat-driven HIV LTR activity; experiment: Co-culture of transfected 293T cells with HeLa cells carrying HIV LTR reporter and Tat; assay type: cell-based; conditions: 293T transfected with construct, co-cultured 24 hours with HeLa (HIV LTR + Tat), FIG. 11
Description: FIG. 11. TOE1 can be secreted and inhibits HIV LTR in neighboring cells. HeLa cells were transfected with either HIV LTR alone, or together with Tat as indicated. Separately, 293T cells were transfected with either control empty vector (C), full length TOE1 (TOE1), or a deletion mutant comprising amino acids 283-363 (SEQ ID NO:13) containing the basic region located at 335-348 (283-363). 24 hours following transfection, the transfected 293T cells were placed in co-culture with the transfected HeLa cells to provide the samples. 24 hours after co-culture, samples were assayed for Tat-driven HIV LTR activity.
To determine if TOE1 could be secreted and subsequently taken up by other neighboring cells, we performed co-culture experiments of cells transfected with the HIV LTR reporter and Tat protein in one cell type and either full length TOE1 or the potential protein transduction domain of TOE1 comprising amino acids 283-363 (SEQ ID NO:13) in another cell type. […] Therefore, a minimal domain of TOE1, comprising the basic stretch of amino acids at position 335-347 (SEQ ID NO:15), was able to function as a protein transduction domain as well as an effective inhibitor of Tat transcriptional activation.

caspase-1 = molecular target: T1, caspase-1 (Homo sapiens, UniProt P29466); experiment: In vitro digestion of immunoprecipitated TOE1 with recombinant caspase-1, Western blot; assay type: biochemical; conditions: caspase-1 incubation 4 hours at 37° C., FIG. 4
T1 construct: purchased Calbiochem
T1 sequence (P29466 120-297 limits assumed): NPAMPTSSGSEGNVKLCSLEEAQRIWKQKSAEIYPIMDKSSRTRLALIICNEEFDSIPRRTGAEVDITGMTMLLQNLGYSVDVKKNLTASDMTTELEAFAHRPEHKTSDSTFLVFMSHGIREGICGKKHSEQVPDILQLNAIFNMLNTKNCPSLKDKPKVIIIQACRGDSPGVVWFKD
Description: FIG. 4: TOE1 is a substrate for caspase-1. (A) Endogenously expressed TOE1 was immunoprecipitated from a lysate of Jurkat cells using the rabbit polyclonal α-TOE1 antibody or pre-immune serum (control=C) and ProteinA/Sepharose™ beads. Immunoprecipitates complexed beads were then incubated with 5 units of recombinant caspase-1 (from Calbiochem) or control buffer, as indicated, for 4 hours at 37° C., and then separated on a 12% Acrylamide/SDS gel and transferred on a PVDF membrane. 50 kDa, 40 kDa and 30 kDa fragments are visible after probing the blot with the monoclonal α-TOE1 antibody. (B) Cell lysates from cells transfected with a TOE1 expression construct were subjected to immunoprecipitation with the rabbit α-TOE1 antibody and ProteinA/Sepharose™ beads.
Since, as described earlier, CAF activity is reported to be dependent upon proteolytic activity, we decided to explore the possibility that TOE1 is a protease substrate. […] The software predicts a single cleavage for the tetrapeptide FTAD at position 214-217 of TOE1. We considered this potential cleavage to warrant further study for several reasons. […] Under our experimental conditions we observed processing by casapse-1 generating fragments of 50, 40, and 30 kDa as detected with a monoclonal anti-TOE1 antibody whose target epitope we have mapped to residues 218-282 (FIG. 4A). […]

Substance: D195/282A
- inhibitory activity of Tat activation of HIV LTR compared with wild-type TOE1 [1]: less effective than wild type TOE1; also recorded: significantly less effective

Substance: delN282
- inhibitory activity of Tat activation of HIV LTR compared with wild-type TOE1 [1]: more efficient inhibitor; also recorded: greater inhibition than wild-type TOE1

Substance: TOE1: human TOE1 (target of EGR1) protein, full length, 510 amino acids
- effect on the LTR in the absence of Tat ([1]; HIV LTR luciferase, no Tat): did not have any effect
- reduction of Tat transactivation potential ([1]; TOE1 coexpressed with Tat, HIV LTR incl. TAR luciferase, different experiments (FIG. 3)): 50-80%
- inhibition of Tat activation of the HIV LTR in neighboring cells [2]: effectively inhibiting

Substance: YVAD-CHO
- inhibition of TOE1 processing by caspase-1 (caspase-1): completely prevents the processing; also recorded: processing was inhibited

Substance: 335-363 (KRRRRRRREKRKRALLNLPGTQTSGEAKD; K335/D363 Deletion mutant of TOE1)
- inhibition of Tat activation of the HIV LTR by TOE1 deletion mutants ([1]; transfected deletion mutants, FIG. 9): significantly inhibiting
